{"source": "patent US8859543B2", "about": "“Imidazo[1,2-a]pyrazine derivatives and their use for the prevention or treatment of neurological, psychiatric and metabolic disorders and diseases” (Janssen Pharmaceutica NV, priority 2010, dated 2014)", "key": {"PDE9A": {"target": "PDE9A (Homo sapiens, UniProt O76083)", "sequence (O76083 whole entry)": "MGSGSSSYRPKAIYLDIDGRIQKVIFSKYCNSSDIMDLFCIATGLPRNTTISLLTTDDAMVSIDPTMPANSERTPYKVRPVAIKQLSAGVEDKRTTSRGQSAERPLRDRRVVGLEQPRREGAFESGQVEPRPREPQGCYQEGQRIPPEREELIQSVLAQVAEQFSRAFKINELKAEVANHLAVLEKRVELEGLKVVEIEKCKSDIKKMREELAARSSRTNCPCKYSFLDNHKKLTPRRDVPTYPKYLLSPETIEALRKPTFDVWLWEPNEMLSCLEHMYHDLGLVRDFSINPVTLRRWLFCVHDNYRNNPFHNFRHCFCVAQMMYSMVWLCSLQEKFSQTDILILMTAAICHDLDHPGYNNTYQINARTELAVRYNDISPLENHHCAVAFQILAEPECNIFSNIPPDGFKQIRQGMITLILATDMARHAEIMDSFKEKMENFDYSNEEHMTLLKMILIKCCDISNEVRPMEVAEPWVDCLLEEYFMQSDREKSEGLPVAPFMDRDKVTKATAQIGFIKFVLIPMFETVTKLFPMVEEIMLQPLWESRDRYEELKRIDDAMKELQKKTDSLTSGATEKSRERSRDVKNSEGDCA", "experiment": "In vitro PDE selectivity assay, PDE9A", "type": "biochemical", "conditions": "Table 4a in vitro selectivity; read-out: IC50 PDE type 9A", "description": "(§1) Rat recombinant PDE10A (rPDE10A2) was expressed in Sf9 cells using a recombinant rPDE10A baculovirus construct. Cells were harvested after 48 h of infection and the rPDE10A protein was purified by metal chelate chromatography on Ni-sepharose 6FF. […] The reaction was incubated for 60 min. at RT. […] After sedimentation of the beads during 30 min. the radioactivity was measured in a Perkin Elmer Topcount scintillation counter and results were expressed as cpm. For blank values the enzyme was omitted from the reaction and replaced by incubation buffer. […] The same assay principle is applied for the measurement of the affinity of the compound for other members of the PDE family with appropriate modifications in incubation buffer, substrate concentration, incubation time and stop solution."}, "PDE11A": {"target": "PDE11A (Homo sapiens, UniProt Q9HCR9)", "sequence (Q9HCR9 whole entry, species assumed)": "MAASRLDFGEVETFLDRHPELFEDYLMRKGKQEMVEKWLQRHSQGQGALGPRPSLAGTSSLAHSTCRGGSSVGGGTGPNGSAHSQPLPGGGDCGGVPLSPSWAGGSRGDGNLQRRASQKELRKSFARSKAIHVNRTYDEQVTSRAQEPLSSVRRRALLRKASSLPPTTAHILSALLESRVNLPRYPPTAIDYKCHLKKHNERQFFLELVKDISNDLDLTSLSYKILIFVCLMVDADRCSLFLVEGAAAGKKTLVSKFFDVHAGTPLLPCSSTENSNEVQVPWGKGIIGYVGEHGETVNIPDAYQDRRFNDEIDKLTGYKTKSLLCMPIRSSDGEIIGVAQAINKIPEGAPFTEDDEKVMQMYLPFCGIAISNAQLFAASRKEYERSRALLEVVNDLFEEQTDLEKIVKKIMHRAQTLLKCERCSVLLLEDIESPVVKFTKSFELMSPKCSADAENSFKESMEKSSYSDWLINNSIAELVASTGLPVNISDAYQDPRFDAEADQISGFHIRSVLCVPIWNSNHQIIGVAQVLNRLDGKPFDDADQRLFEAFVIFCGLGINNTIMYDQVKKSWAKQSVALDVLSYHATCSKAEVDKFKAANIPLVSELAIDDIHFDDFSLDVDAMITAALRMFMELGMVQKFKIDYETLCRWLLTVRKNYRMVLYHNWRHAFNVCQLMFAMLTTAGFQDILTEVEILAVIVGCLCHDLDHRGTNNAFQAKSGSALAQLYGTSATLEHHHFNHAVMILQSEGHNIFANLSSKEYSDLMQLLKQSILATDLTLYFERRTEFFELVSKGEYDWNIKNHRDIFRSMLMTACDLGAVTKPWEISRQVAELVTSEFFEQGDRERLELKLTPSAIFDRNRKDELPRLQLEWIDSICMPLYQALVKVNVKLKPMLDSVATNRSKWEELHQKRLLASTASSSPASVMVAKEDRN", "experiment": "In vitro PDE selectivity assay, PDE11A", "type": "biochemical", "conditions": "Table 4a in vitro selectivity; read-out: IC50 PDE type 11A", "description": "as §1"}, "PDE2A": {"target": "PDE2A (Homo sapiens, UniProt O00408)", "sequence (O00408 whole entry, species assumed)": "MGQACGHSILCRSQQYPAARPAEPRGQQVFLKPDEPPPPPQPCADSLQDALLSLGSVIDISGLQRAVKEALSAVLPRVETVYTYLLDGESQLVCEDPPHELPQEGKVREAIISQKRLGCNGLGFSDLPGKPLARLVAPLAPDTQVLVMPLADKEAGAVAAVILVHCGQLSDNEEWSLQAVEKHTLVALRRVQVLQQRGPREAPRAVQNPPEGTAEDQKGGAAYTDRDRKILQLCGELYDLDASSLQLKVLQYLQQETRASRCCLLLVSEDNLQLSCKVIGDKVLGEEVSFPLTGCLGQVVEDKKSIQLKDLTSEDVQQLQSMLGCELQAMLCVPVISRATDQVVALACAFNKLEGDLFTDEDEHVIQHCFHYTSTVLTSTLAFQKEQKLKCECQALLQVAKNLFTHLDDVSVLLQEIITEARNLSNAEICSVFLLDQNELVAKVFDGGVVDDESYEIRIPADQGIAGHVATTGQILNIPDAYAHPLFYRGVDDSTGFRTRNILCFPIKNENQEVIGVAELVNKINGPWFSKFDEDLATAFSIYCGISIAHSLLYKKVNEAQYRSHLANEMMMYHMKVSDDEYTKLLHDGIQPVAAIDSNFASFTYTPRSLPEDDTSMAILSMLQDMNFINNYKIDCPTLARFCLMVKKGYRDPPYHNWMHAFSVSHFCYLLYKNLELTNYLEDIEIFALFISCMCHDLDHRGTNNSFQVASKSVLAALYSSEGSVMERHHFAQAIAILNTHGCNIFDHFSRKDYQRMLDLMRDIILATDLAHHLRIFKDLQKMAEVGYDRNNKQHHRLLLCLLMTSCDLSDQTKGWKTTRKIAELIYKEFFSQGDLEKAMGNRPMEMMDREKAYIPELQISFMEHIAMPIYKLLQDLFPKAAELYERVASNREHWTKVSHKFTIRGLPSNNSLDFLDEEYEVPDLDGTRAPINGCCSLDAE", "experiment": "In vitro PDE selectivity assay, PDE2A", "type": "biochemical", "conditions": "Table 4a in vitro selectivity; read-out: IC50 PDE type 2A", "description": "as §1"}, "PDE3A": {"target": "PDE3A (Homo sapiens, UniProt Q14432)", "sequence (Q14432 whole entry)": "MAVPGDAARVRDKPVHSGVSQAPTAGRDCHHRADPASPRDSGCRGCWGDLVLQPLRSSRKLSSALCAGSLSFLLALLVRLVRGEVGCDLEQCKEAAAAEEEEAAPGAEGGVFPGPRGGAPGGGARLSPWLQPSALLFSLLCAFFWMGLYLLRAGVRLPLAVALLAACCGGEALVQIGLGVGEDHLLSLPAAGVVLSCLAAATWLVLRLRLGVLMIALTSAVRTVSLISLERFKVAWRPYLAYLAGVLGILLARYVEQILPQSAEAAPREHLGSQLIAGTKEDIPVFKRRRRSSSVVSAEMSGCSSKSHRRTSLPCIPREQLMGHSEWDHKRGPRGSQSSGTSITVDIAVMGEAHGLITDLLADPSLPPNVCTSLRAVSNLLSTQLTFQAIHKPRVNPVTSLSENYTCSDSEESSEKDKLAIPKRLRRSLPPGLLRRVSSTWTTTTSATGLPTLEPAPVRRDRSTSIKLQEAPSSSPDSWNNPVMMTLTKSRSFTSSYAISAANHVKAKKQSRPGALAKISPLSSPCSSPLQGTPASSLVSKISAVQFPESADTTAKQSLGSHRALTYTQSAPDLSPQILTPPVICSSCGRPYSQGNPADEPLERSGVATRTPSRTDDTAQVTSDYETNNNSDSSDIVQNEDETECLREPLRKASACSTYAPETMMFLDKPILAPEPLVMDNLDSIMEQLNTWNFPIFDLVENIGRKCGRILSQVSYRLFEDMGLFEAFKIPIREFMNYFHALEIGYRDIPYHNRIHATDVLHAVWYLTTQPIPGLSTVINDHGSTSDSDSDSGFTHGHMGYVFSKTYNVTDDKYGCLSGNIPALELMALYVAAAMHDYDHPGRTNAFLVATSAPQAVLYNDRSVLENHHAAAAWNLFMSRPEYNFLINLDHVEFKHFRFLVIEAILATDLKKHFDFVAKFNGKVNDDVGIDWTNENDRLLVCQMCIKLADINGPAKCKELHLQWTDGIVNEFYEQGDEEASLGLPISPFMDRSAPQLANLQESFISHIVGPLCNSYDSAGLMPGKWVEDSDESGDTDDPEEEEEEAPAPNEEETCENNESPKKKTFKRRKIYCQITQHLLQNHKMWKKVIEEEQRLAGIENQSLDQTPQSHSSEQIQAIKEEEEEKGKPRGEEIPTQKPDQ", "experiment": "In vitro PDE selectivity assay, PDE3A", "type": "biochemical", "conditions": "Table 4a in vitro selectivity; read-out: IC50 PDE type 3A", "description": "as §1"}, "PDE1B": {"target": "PDE1B (Homo sapiens, UniProt Q01064)", "sequence (Q01064 whole entry)": "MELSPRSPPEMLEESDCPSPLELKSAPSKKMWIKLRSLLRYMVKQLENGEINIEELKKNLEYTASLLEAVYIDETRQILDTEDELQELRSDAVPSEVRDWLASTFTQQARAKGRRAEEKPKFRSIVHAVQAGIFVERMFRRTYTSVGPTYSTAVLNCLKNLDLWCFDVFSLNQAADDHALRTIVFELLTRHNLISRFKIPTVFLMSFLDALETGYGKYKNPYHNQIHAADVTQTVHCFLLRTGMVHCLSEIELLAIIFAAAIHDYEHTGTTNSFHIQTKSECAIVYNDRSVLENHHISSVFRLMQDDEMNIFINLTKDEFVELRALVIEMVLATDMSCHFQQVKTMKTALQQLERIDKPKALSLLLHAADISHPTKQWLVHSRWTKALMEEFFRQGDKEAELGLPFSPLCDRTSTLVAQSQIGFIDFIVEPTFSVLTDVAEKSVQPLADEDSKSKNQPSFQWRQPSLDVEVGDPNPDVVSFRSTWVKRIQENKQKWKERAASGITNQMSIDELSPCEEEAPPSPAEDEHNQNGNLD", "experiment": "In vitro PDE selectivity assay, PDE1B", "type": "biochemical", "conditions": "Table 4a in vitro selectivity; read-out: IC50 PDE type 1B", "description": "as §1"}, "[1]": {"target": "T1, Rat recombinant PDE10A (rPDE10A2) (Rattus norvegicus, UniProt Q9QYJ6)", "T1 construct": "made in house; host or cells: Sf9 insect cells, baculovirus", "T1 sequence (Q9QYJ6 1-794)": "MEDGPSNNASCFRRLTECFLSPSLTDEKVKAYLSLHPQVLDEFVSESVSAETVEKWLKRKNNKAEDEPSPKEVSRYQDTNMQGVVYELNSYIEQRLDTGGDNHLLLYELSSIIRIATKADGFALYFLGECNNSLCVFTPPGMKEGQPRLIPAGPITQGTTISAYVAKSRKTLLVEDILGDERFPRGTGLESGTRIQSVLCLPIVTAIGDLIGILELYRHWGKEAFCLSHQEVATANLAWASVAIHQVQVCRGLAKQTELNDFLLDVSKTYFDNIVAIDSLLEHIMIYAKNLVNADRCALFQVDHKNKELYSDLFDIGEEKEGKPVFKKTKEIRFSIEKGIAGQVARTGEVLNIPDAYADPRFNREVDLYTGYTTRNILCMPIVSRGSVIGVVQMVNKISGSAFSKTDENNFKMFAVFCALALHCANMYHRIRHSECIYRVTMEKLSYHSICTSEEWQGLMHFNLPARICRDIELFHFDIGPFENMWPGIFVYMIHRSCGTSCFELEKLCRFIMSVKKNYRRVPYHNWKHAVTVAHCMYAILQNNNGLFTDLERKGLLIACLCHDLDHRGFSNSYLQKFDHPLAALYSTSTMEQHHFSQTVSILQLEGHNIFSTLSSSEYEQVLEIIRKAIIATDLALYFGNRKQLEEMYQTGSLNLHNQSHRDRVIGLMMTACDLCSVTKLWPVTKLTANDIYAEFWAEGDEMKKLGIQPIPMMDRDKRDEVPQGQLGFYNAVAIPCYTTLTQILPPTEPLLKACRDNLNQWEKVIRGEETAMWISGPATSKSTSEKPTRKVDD", "experiment": "In vitro assay PDE10A (SPA, 3H-cAMP)", "type": "biochemical", "how_it_was_run": "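Purified Sf9-expressed rat PDE10A2 incubated 60 min at RT with 60 nM cAMP plus 0.008 μCi 3H-cAMP in 50 mM Tris pH 7.8, 8.3 mM MgCl2, 1.7 mM EGTA, 1% DMSO final. Product quantified by scintillation proximity counting against no-enzyme blanks and DMSO controls.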"}, "PDE4D": {"target": "PDE4D (Homo sapiens, UniProt Q08499)", "sequence (Q08499 whole entry, species assumed)": "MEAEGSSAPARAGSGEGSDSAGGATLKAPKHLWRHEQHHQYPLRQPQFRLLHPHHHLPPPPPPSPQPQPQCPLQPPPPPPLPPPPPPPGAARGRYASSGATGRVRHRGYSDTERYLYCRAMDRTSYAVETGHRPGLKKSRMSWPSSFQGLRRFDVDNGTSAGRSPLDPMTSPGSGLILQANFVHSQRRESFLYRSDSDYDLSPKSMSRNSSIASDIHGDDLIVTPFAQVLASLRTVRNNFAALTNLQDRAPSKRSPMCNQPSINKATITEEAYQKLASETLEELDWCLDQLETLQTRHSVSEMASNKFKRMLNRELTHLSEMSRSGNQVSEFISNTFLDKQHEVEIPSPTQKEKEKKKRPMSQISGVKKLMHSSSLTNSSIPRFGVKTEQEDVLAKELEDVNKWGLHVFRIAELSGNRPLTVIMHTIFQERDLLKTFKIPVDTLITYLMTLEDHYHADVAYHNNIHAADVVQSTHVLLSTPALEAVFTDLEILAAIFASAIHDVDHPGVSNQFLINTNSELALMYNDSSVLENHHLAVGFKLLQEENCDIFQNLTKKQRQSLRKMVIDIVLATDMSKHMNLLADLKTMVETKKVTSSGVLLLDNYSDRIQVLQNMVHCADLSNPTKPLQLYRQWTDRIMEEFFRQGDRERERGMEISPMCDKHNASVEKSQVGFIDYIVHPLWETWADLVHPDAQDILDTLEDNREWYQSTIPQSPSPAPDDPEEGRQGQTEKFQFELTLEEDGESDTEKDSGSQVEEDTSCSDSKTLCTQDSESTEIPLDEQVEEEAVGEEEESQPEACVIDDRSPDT", "experiment": "In vitro PDE selectivity assay, PDE4D", "type": "biochemical", "conditions": "Table 4a in vitro selectivity; read-out: IC50 PDE type 4D", "description": "as §1"}, "[2]": {"system": "apomorphine-induced stereotypy", "experiment": "Apomorphine-induced stereotypy in rats (APO)", "type": "in vivo", "conditions": "Rattus norvegicus, read-out: APO ED50", "description": "Apomorphine-Induced Stereotypy in Rats (APO)\nApomorphine (1.0 mg/kg, i.v.)-induced stereotypy (compulsive sniffing, licking, chewing) was scored every 5 min. over the first hour after injection of apomorphine, following a 1 hour interval pre-treatment with the test compound. The score system was: (3) pronounced, (2) moderate, (1) slight, and (O) absent."}, "[3]": {"system": "conditioned avoidance response", "experiment": "Conditioned avoidance response (CAR) test", "type": "in vivo", "conditions": "Rattus norvegicus", "description": "Conditioned Avoidance Response (CAR) Test\nThe apparatus consisted of an inner box surrounded by an outer box. The inner box was composed of four walls of transparent, synthetic material (length×width×height: 30×30×30 cm), an open top, and a grid floor made of 15 pairs of iron bars (2 mm diameter; 6 mm inter-bar distance). Odd and even bars were connected with a source of alternative current (1.0 mA; Coulbourn Instruments Solid State Shocker/Distributor), which could be interrupted by a switch. The outer box was composed of the same material (length×width×height: 40×40×36 cm), also with an open top, with a distance of 5 cm between the inner and outer box on all sides. To decrease the amount of environmental stimuli, three walls of the outer box were made non-transparent. The front wall was left transparent to allow the necessary inspection of the animal during the test. The upper edge of the outer and inner box served as a target for the rats on which to jump with fore- and hind-paws, respectively.\nFrom their arrival in the laboratory on the experimental day, male Wiga Wistar rats (230±30 g) were housed in individual cages provided with bedding material.\nThe rats were tested 3 times, i.e. at 60, 90 and 120 min after the injection of test compound or solvent. Latency to avoidance was recorded. The median avoidance response obtained over the three experimental sessions for each rat were used for further calculations."}}, "note": "Where two headings read alike, the source gives them in different places.", "data": [{"smiles": "Cc1nc2c(N3CCOCC3)nccn2c1-c1ccc(C2CCOCC2)nc1", "note": "[compound 25, 2-Methyl-8-morpholin-4-yl-3-[6-(tetrahydro-pyran-4-yl)-pyridin-3-yl]-imidazo[1,2-a]pyrazine]", "values": [{"measurement": "IC50", "setting": "PDE9A", "value": "> 100", "unit": "µM"}, {"measurement": "IC50", "setting": "PDE11A", "value": 66.1, "unit": "µM"}, {"measurement": "IC50", "setting": "PDE2A", "value": 42.7, "unit": "µM"}, {"measurement": "IC50", "setting": "PDE3A", "value": 112, "unit": "µM"}, {"measurement": "IC50", "setting": "PDE1B", "value": "> 100", "unit": "µM"}, {"measurement": "IC50", "setting": "[1]; Table 4a in vitro selectivity, read-out: IC50 PDE type 10A", "value": 0.16, "unit": "µM"}, {"measurement": "IC50", "setting": "[1]; pIC50 corresponds to the -log IC50 expressed in mol/L, read-out: PDE10A2 pIC50 (converted)", "value": 0.191, "unit": "µM"}, {"measurement": "IC50", "setting": "PDE4D", "value": 58.9, "unit": "µM"}, {"measurement": "ED50", "setting": "[2]", "value": 1.2, "unit": "mg/kg"}, {"measurement": "ED50", "setting": "[3]", "value": 4.1, "unit": "mg/kg"}]}]}
